Measurements as given in patent US12240844B2 (Voronoi, Inc., priority 2019, dated 2025).

Assays:
MDA-MB-231 cell line = experiment: MDA-MB-231 cancer cell proliferation inhibition (Cell Titer-Glo); format: cell-based; conditions: Homo sapiens, MDA-MB-231 triple-negative breast cancer cell line, 72 hours
Procedure: (§1) In order to evaluate the cancer cell proliferation inhibitory activity of the compounds of the present invention, the following experiments were performed.
(§2) To evaluate the cancer cell proliferation inhibitory effect, the cell growth rate analysis was performed while culturing MDA-MB-231 cell line (Korean Cell Line Bank #30026) and MDA-MB-468 cell line as the triple-negative breast cancer cell line, and SHP-77 (ATCC #CRL-2195) as the small cell lung cancer cell line in DMEM (HyClone #SH30243) and RPMI medium (HyClone #SH3027.01), respectively. More specifically, the cell lines were each plated at 2000 cells/100 μl in each well of a 96-well flat-bottom plate (coming #3903), and then the example compounds having eleven concentrations which were diluted by ⅓ so that the final concentrations were 10.000000, 3.333333, 1.111111, 0.370370, 0.123457, 0.041152, 0.013717, 0.004572, 0.001524, 0.000508 and 0.000169 μM were treated. After 72 hours, 100 μl of Cell Titer-Glo (Promega G7573) was treated, incubated at RT for 10 minutes, and then luminescence was measured using a microplate reader. The measured luminescence degree was calculated as GI50 using Prism (version 8.2 GraphPad) software.
(§3) In the table below, the following designations were used for the evaluation of proliferation inhibitory activity.

LRRK2 (G2019S) = LRRK2 (G2019S) (Homo sapiens, UniProt Q5S007, G2019S); experiment: LRRK2 G2019S enzyme inhibition, ADP-Glo kinase assay; format: biochemical; parameters: purchased SignalChem L10-12GG
Sequence of LRRK2 (G2019S) (Q5S007 970-2527 G2019S limits assumed): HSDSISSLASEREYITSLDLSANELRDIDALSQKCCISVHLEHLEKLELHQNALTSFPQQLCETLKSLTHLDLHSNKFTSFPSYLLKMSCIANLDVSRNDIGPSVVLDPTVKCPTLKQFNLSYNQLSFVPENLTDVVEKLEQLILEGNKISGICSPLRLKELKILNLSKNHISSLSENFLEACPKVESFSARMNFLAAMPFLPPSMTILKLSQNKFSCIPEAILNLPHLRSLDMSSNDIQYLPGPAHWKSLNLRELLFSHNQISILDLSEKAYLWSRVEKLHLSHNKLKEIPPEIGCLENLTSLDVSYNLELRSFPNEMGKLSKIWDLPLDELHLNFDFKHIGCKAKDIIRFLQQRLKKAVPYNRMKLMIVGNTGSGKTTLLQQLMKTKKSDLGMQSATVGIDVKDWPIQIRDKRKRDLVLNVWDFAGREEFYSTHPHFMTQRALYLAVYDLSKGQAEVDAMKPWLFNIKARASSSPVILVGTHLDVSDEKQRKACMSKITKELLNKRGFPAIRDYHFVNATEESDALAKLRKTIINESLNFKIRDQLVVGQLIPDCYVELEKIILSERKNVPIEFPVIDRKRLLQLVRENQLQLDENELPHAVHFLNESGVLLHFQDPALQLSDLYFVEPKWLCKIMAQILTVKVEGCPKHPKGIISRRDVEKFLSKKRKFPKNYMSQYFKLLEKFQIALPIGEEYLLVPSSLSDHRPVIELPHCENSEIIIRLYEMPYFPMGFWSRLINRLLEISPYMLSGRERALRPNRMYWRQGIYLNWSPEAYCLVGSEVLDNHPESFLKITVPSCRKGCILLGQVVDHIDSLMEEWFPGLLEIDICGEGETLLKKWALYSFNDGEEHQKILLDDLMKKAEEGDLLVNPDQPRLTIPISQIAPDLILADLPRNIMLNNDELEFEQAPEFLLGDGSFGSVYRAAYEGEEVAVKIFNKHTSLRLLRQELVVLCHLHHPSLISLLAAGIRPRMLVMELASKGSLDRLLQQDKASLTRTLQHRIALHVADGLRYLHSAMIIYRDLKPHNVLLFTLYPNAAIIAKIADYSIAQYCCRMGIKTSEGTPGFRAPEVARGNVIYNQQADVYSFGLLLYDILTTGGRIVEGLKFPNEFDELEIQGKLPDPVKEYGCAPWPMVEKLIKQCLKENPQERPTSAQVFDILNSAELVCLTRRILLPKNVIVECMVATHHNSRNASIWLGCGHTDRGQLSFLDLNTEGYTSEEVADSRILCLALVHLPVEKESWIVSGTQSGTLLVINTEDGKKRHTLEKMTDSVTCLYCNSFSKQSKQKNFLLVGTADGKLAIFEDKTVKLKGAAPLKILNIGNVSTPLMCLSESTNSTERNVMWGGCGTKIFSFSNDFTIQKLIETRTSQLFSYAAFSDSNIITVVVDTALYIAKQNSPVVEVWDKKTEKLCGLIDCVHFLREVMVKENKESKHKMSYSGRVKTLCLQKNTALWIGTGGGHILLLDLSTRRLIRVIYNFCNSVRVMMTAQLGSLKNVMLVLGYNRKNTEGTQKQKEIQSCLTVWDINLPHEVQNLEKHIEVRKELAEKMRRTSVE
In short: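 Activity read as ADP-Glo luminescence, normalized to untreated solvent control, with IC50 (nM) fitted over 12 final compound levels (top 50 μM). Reaction: 2 h, 25° C, human LRRK2 G2019S 16 ng, ATP 25 μM, substrate 0.2 μg, in Tris-HCl pH 7.4 with MgCl2, BSA and DTT.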

LRRK2 = LRRK2 (Homo sapiens, UniProt Q5S007); experiment: LRRK2 enzyme inhibition, ADP-Glo kinase assay; format: biochemical; parameters: purchased Invitrogen PR8604B
Sequence of LRRK2 (Q5S007 970-2527 limits assumed): as the sequence (Q5S007 970-2527 G2019S limits assumed) above, with S1050G counted along it
In short: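 ADP-Glo luminescence read after 2 h at 25° C, 10 μM ATP, 25 ng purified human LRRK2 and […] substrate in Tris-HCl pH7.4 buffer with MgCl2, BSA, DTT. Twelve final concentrations, 50 μM down to 0.000001024 μM; IC50 (nM) from inhibition relative to untreated solvent control.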

SHP-77 = SHP-77 cancer cell proliferation inhibition (Cell Titer-Glo); format: cell-based; conditions: Homo sapiens, SHP77, SHP-77 small cell lung cancer cell line, 72 hours
Procedure: as §1, §2, §3

[1] = target: T1, human GST-DYRK1A (full length) (Homo sapiens, UniProt Q13627); experiment: GST-DYRK1A enzyme inhibition, ADP-Glo kinase assay; format: biochemical; conditions: read-out: DYRK1 IC50
T1 construct: purified human GST-DYRK1A (full length, Thermo scientifics) enzyme; GST; purchased Thermo scientifics
In short: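 ADP-Glo luminescence quantified kinase activity after a 1 h, 25° C reaction of 10 ng full-length GST-tagged human DYRK1A, substrate and 10 uM ATP in Tris-HCl buffer pH 7.4 with MgCl2, BSA and DTT. Triplicate IC50 values (nM) calculated relative to untreated solvent control.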

human GST-CLK1 (129-end) = target: T2, human GST-CLK1 (129-end) (Homo sapiens, UniProt P49759); experiment: GST-CLK1 enzyme inhibition, ADP-Glo kinase assay; format: biochemical; conditions: ATP 10 uM
T2 construct: purified human GST-CLK1 (129-end, Signalchem) enzyme; GST; purchased Signalchem
T2 sequence (P49759 129-484 limits assumed): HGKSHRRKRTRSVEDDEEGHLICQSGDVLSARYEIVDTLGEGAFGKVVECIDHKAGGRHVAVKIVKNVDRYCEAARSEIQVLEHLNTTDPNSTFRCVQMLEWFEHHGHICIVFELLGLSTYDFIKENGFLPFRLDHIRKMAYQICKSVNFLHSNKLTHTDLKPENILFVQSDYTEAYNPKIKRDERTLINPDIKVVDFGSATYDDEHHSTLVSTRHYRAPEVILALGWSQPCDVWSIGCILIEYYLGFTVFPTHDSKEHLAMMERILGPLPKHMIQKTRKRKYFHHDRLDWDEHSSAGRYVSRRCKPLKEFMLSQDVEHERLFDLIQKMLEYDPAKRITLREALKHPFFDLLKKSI
In short: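 ADP formation was read by ADP-Glo luminescence after 1 h at 25° C with 3 ng human GST-CLK1 (129-end), substrate and 10 uM ATP in Tris pH 7.4 buffer containing MgCl2, BSA and DTT. Inhibition relative to untreated solvent control gave IC50 (nM), run in triplicate.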

| Structure (SMILES) | GI50 (MDA-MB-231 cell line) | IC50 (LRRK2 (G2019S)) | IC50 (LRRK2) | GI50 (SHP-77) | IC50 [1] | IC50 (human GST-CLK1 (129-end)) |
| --- | --- | --- | --- | --- | --- | --- |
| O=S(=O)(c1ccc(Nc2cc(C3CC3)c3c(C(F)(F)F)c[nH]c3n2)c2c1OCCO2)N1CCOCC1 [Example 100, 4-cyclopropyl-N-(8-(morpholinosulfonyl)-2,3-dihydrobenzo[b] [1,4]dioxin-5-yl)-3-(trifluoromethyl)-1H-pyrrolo[2,3-b]pyridine-6-amine] | 301 to 1000 nM | 301 to 1000 nM | 301 to 1000 nM | 301 to 1000 nM | < 100 nM | 301 to 1000 nM |
| COc1cc(S(=O)(=O)N2CCOCC2)ccc1Nc1cc(NC2CCCCC2)c2c(C(F)(F)F)c[nH]c2n1 [Example 181, N^4-cyclohexyl-N^6-(2-methoxy-4-(morpholinosulfonyl)phenyl)-3-(trifluoromethyl)-1H-pyrrolo[2,3-b]pyridine-4,6-diamine] | 301 to 1000 nM | 301 to 1000 nM | 301 to 1000 nM | 301 to 1000 nM | 301 to 1000 nM | 301 to 1000 nM |
| COc1cc(S(=O)(=O)N2CCC(N3CCOCC3)CC2)ccc1Nc1cc(NC2CCC2)c2c(C#N)c[nH]c2n1 [Example 135, 4-(cyclobutylamino)-6-((2-methoxy-4-((4-morpholinopiperidin-1-yl)sulfonyl)phenyl)amino)-1H-pyrrolo[2,3-b]pyridine-3-carbonitrile] | 51 to 100 nM | < 100 nM | < 100 nM | < 50 nM | 301 to 1000 nM | 301 to 1000 nM |
| CCNc1cc(Nc2ccc(S(=O)(=O)N3CCC(N4CCOCC4)CC3)cc2OC)nc2[nH]cc(C#N)c12 [Example 138, 4-(ethylamino)-6-((2-methoxy-4-((4-morpholinopiperidin-1-yl)sulfonyl)phenyl)amino)-1H-pyrrolo[2,3-b]pyridine-3-carbonitrile] | < 50 nM | < 100 nM | < 100 nM | < 50 nM | 101 to 300 nM | 301 to 1000 nM |
| COc1cc(S(=O)(=O)N2CCC(N3CCOCC3)CC2)ccc1Nc1cc(NCC(C)C)c2c(C(F)(F)F)c[nH]c2n1 [Example 191, N^4-isobutyl-N^6-(2-methoxy-4-((4-morpholinopiperidin-1-yl)sulfonyl)phenyl)-3-(trifluoromethyl)-1H-pyrrolo[2,3-b]pyridine-4,6-diamine] | 301 to 1000 nM | 301 to 1000 nM | 101 to 300 nM | 301 to 1000 nM | 301 to 1000 nM | 301 to 1000 nM |
| CCCNc1cc(Nc2ccc(S(=O)(=O)N3CCOCC3)cc2OC)nc2[nH]cc(C(F)(F)F)c12 [Example 199, N^6-(2-methoxy-4-(morpholinosulfonyl)phenyl)-N^4-propyl-3-(trifluoromethyl)-1H-pyrrolo[2,3-b]pyridine-4,6-diamine] | 301 to 1000 nM | 301 to 1000 nM | 301 to 1000 nM | 301 to 1000 nM | 301 to 1000 nM | 301 to 1000 nM |
| COc1cc(S(=O)(=O)N2CCOCC2)ccc1Nc1cc(NC2CC2)c2c(C(F)(F)F)c[nH]c2n1 [Example 186, N^4-cyclopropyl-N^6-(2-methoxy-4-(morpholinosulfonyl)phenyl)-3-(trifluoromethyl)-1H-pyrrolo[2,3-b]pyridine-4,6-diamine] | 301 to 1000 nM | 301 to 1000 nM | 301 to 1000 nM | 301 to 1000 nM | 301 to 1000 nM | 301 to 1000 nM |
| CNc1cc(Nc2ccc(S(=O)(=O)N3CCC(N4CCOCC4)CC3)cc2OC)nc2[nH]cc(C#N)c12 [Example 137, 6-((2-methoxy-4-((4-morpholinopiperidin-1-yl)sulfonyl)phenyl)amino)-4-(methylamino)-1H-pyrrolo[2,3-b]pyridine-3-carbonitrile] | 51 to 100 nM | < 100 nM | < 100 nM | 51 to 100 nM | 301 to 1000 nM | 301 to 1000 nM |
| CCOc1cc(Nc2ccc(S(=O)(=O)N3CCC(N4CCOCC4)CC3)cc2OC)nc2[nH]cc(C(F)(F)F)c12 [Example 232, 4-ethoxy-N-(2-methoxy-4-((4-morpholinopiperidin-1-yl)sulfonyl)phenyl)-3-(trifluoromethyl)-1H-pyrrolo[2,3-b]pyridin-6-amine] | 301 to 1000 nM | – | 101 to 300 nM | 301 to 1000 nM | 101 to 300 nM | 301 to 1000 nM |
| COCCNc1cc(Nc2ccc(S(=O)(=O)N3CCC(N4CCOCC4)CC3)cc2OC)nc2[nH]cc(C(F)(F)F)c12 [Example 197, N^6-(2-methoxy-4-((4-morpholinopiperidin-1-yl)sulfonyl)phenyl)-N^4-(2-methoxyethyl)-3-(trifluoromethyl)-1H-pyrrolo[2,3-b]pyridine-4,6-diamine] | 301 to 1000 nM | < 100 nM | < 100 nM | 101 to 300 nM | 101 to 300 nM | < 100 nM |
| COCCNc1cc(Nc2ccc(S(=O)(=O)N3CCOCC3)cc2OC)nc2[nH]cc(C(F)(F)F)c12 [Example 195, N^6-(2-methoxy-4-(morpholinosulfonyl)phenyl)-N^4-(2-methoxyethyl)-3-(trifluoromethyl)-1H-pyrrolo[2,3-b]pyridine-4,6-diamine] | 301 to 1000 nM | 301 to 1000 nM | 301 to 1000 nM | 101 to 300 nM | 301 to 1000 nM | 301 to 1000 nM |
| COc1cc(S(=O)(=O)N2CCOCC2)ccc1Nc1cc(NC2CCC2)c2c(C#N)c[nH]c2n1 [Example 128, 4-(cyclobutylamino)-6-((2-methoxy-4-(morpholinosulfonyl)phenyl)amino)-1H-pyrrolo[2,3-b]pyridine-3-carbonitrile] | 51 to 100 nM | 301 to 1000 nM | < 100 nM | < 50 nM | 301 to 1000 nM | 301 to 1000 nM |
| CNc1cc(Nc2ccc(S(=O)(=O)N3CCOCC3)cc2OC)nc2[nH]cc(C#N)c12 [Example 131, 6-((2-methoxy-4-(morpholinosulfonyl)phenyl)amino)-4-(methylamino)-1H-pyrrolo[2,3-b]pyridine-3-carbonitrile] | 51 to 100 nM | < 100 nM | < 100 nM | < 50 nM | 301 to 1000 nM | 301 to 1000 nM |
| CCNc1cc(Nc2ccc(S(=O)(=O)N3CCC(N4CCOCC4)CC3)c3c2OCC3)nc2[nH]cc(C(F)(F)F)c12 [Example 104, N^4-ethyl-N^6-(4-((4-morpholinopiperidin-1-yl)sulfonyl)-2,3-dihydrobenzofuran-7-yl)-3-(trifluoromethyl)-1H-pyrrolo[2,3-b]pyridine-4,6-diamine] | 301 to 1000 nM | – | < 100 nM | 101 to 300 nM | 301 to 1000 nM | 301 to 1000 nM |
| COc1cc(S(=O)(=O)N2CCC(N3CCOCC3)CC2)ccc1Nc1cc(NC2CCC2)c2c(C(F)(F)F)c[nH]c2n1 [Example 202, N^4-cyclobutyl-N^6-(2-methoxy-4-((4-morpholinopiperidin-1-yl)sulfonyl)phenyl)-3-(trifluoromethyl)-1H-pyrrolo[2,3-b]pyridine-4,6-diamine] | 301 to 1000 nM | – | 301 to 1000 nM | 301 to 1000 nM | 301 to 1000 nM | 301 to 1000 nM |
| COc1cc(S(=O)(=O)N2CCOCC2)ccc1Nc1cc(NC2CCC2)c2c(C(F)(F)F)c[nH]c2n1 [Example 203, N^4-cyclobutyl-N^6-(2-methoxy-4-(morpholinosulfonyl)phenyl)-3-(trifluoromethyl)-1H-pyrrolo[2,3-b]pyridine-4,6-diamine] | 301 to 1000 nM | – | 301 to 1000 nM | 301 to 1000 nM | 301 to 1000 nM | 301 to 1000 nM |
